Measurements: PubChem BioAssay AID248 (DTP/NCI, 2004)
Inconclusive results and toxic doses are left out. Rule as the data show it: active = T/C of 150% or more; inactive = T/C below 125%.

System: L1210 leukemia ip in BDF1 mice, survival T/C
Assay: NCI In Vivo Anticancer Drug Screen. Data for tumor model L1210 Leukemia (intraperitoneal) in B6D2F1 (BDF1) mice
Details: endpoint: mean survival time, schedule: Q04DX003 (ip), vehicle: saline, higher = longer survival
Method in brief: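 Value reflects the ratio of survival in compound-treated mice to survival in vehicle-treated controls, with both groups carrying the same transplanted tumor.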

Measured: T/C

CC(C)=CC[N+]12CN3CN(CN(C3)C1)C2
inactive: dose: 100.0 mg/kg/injection 97 % of control | dose: 200.0 mg/kg/injection 103 % of control | dose: 400.0 mg/kg/injection 110 % of control
